PMC6523311, “Synthesis and Biological Evaluation of RGD–Cryptophycin Conjugates for Targeted Drug Delivery” (Pharmaceutics, 2019)

How the values were obtained:
[1] = plasma metabolic stability assay, mouse plasma; type: in vitro ADME; conditions: 24 h
Procedure: (§1) The sample preparation and the metabolic analysis of the conjugates was carried out similarly to a previously described method. In a 96-well plate, the stock solutions (3 mM in dimethyl sulfoxide (DMSO)) of the conjugates and the control compound were diluted with 250 μL of plasma (pooled heparinized mouse ICR/CD1 M plasma #08 or human plasma #MPLLIHP-M, #BHR1003077, BioreclamationIVT, Westbury, NY, USA) to give a 3-µM concentration and incubated at 37 °C. At each sampling time an aliquot of 30 µL was transferred into a 96-deep-well plate and the reaction was stopped with 120 µL of acetonitrile (ACN) containing 0.1% HCOOH and 400 ng/mL of warfarin as internal standard (IS). This mixture was centrifuged at 1100× g for 30 min at 4 °C and 50 µL of supernatants were transferred into a clean 96-deep-well plate and diluted with 50 µL of 0.1% HCOOH in water. Samples were stored at −80 °C prior to UPLC-HRMS analysis (see Supplementary Materials). The stability was determined based on the disappearance of the test compound as a function of incubation time, using area ratios (analyte peak area vs internal standard peak area). The elimination constant k was calculated by plotting mean disappearance values on a semi-logarithmic scale and fitting with a best fit linear regression using Microsoft Excel. The half-life (t1/2) expressed in hours was determined using equation: t1/2 = ln2/(−k). […]

[2] = tested on: M21 human melanoma cells (αvβ3+); experiment: MTT in vitro cytotoxicity assay, M21; type: cell-based; conditions: for IC50: Homo sapiens, MTT, 2 h treatment and additional 70 h incubation
Procedure: (§2) The human melanoma M21 and M21-L cells were kindly provided by Dr. David Cheresh and The Scripps Research Institute (La Jolla, CA, USA). Cells were cultured in RPMI 1640 supplemented with 10% fetal bovine serum (FBS), 1% L-glutamine and 1% Penicillin/Streptomycin in a humidified incubator at 37 °C and 5% CO2.
(§3) Cell viability was quantified by 3-(4,5-dimethylthiazol-2-yl)-2,5-diphenyltetrazolium bromide (MTT) assay. Cells were plated at a density of 3000 cells/well (Nunc® MicroWell® flat-bottom 96-well plate, Thermo Fisher Scientific) and incubated overnight to allow adherence. The following day, cells were treated with serial dilutions of each compound or 0.1% DMSO as control. After 2 h of incubation, cells were centrifuged at 1200 rpm for 5 min; supernatant containing the compounds was removed and replaced with fresh medium. Cells were further incubated for 70 h as described above, and at the end of treatment, 5 µL of MTT (5 mg/mL in deionized H2O, #M5655, Sigma Aldrich) were added to each well and the cells incubated for another 2 h. Finally, 100 µL of lysis buffer (10% SDS, 10 mM HCl) were added, and cells were placed in the incubator overnight for the formazan crystal solubilization. Absorbance at 540 nm was measured using FLUOstar Omega (BMG Labtech, Ortenberg, Germany) instrument and the growth inhibition ratio was calculated. Blank controls detecting cell-free media absorbance were performed in parallel. Three experimental replicates were used. The half-maximal inhibitory concentration values (IC50) were obtained from viability curves by fitting data to the four-parameter logistic equation using GraphPad Prism 6 (GraphPad Software, San Diego, CA, USA). The cell viability was expressed as percentage relative to the respective control conditions.

[3] = tested on: M21-L human melanoma cells (αv-, αvβ3-); experiment: MTT in vitro cytotoxicity assay, M21-L; type: cell-based; conditions: 2 h treatment and additional 70 h incubation
Procedure: as §2, §3

[4] = plasma metabolic stability assay, human plasma; type: in vitro ADME; conditions: 24 h
Procedure: as §1

[5] = target: T1, human αvβ3 integrin (Homo sapiens, UniProt P05106+P06756, DEL719-788); experiment: competitive ELISA-like integrin binding assay (immobilized vitronectin, soluble integrin); conditions: competition with immobilized vitronectin
T1 construct: purchased R&D Systems 3050-AV-050

[6] = target: T2, bovine spleen cathepsin B (Bos taurus, UniProt P07688); experiment: cathepsin B cleavage assay; type: in vitro ADME; conditions: cathepsin B 1 U/mL, 37 °C, pH 5.5, 5 µM substrate
T2 construct: cathepsin B (bovine spleen cathepsin B, #C6286, Sigma Aldrich); purchased Sigma Aldrich C6286; host or cells: bovine spleen
Procedure: L-cysteine (#C8152, Sigma Aldrich) was dissolved in acetate buffer/ethylenediaminetetraacetic acid (EDTA) 1 mM pH 5.5 to get a solution with a final concentration of L-cysteine of 28 mM. This solution was used to dilute an aliquot of cathepsin B (bovine spleen cathepsin B, #C6286, Sigma Aldrich) to 1.11 U/mL. Sample containing cathepsin B was pre-incubated at 37 °C for 15 min and then split into 45-µL aliquots in Eppendorf tubes, two replicates for each incubation time. Aliquots of 5 µL of 50 µM solutions of the substrates prepared in MeOH/H2O (50/50) were added to each tube, to get a final concentration of 5 µM. Tubes corresponding to t = 0 min contained 100 µL of 1% HCOOH in MeOH and were put in an ice bath to stop the reaction. All the other tubes were incubated at 37 °C in an oscillating thermostatic bath and reaction was stopped at the following incubation times: 0.25, 0.5, 1, 2, 4, and 6 h, as described for t = 0 min samples. Samples were centrifuged for 10 min at 14,000 rpm at 4 °C and filtered with regenerated cellulose syringe filters prior to injection in the HPLC-MS system (see Supplementary Materials). […] Substrates and possible metabolites were quantified based on calibration curves prepared in acetate buffer/EDTA/L-cysteine.

COc1ccc(C[C@H]2NC(=O)/C=C/C[C@@H]([C@H](C)[C@H]3O[C@@H]3c3ccccc3)OC(=O)[C@H](CC(C)C)OC(=O)C(C)(C)CNC2=O)cc1Cl [compound 2, cryptophycin-52, reference compound]
stability in mouse plasma [1]: significant metabolism
IC50 [2]: 0.07 nM
fold higher biological activity than cryptophycin-55 glycinate ([2]; M21 and M21-L cells, same test conditions): 10-20 fold
IC50 [3]: 0.02 nM

COc1ccc(C[C@H]2NC(=O)/C=C/C[C@@H]([C@H](C)[C@@H](OC(=O)CN)[C@@H](Cl)c3ccccc3)OC(=O)[C@H](CC(C)C)OC(=O)C(C)(C)CNC2=O)cc1Cl [compound 4, Cryptophycin-55 glycinate]
stability in human plasma [4]: good stability
stability in mouse plasma [1]: markedly improved stability compared to the parent compound
IC50 [2]: 0.75 ± 0.11 nM
IC50 [3]: 0.14 ± 0.08 nM

[N-]=[N+]=NCCC(=O)NCCCC[C@@H]1NC(=O)[C@@H](Cc2ccccc2)NC(=O)[C@H](CC(=O)O)NC(=O)CNC(=O)[C@H](CCCNC(=N)N)NC1=O [compound 9]
IC50 [5]: 0.71 nM

COc1ccc(C[C@H]2NC(=O)/C=C/C[C@@H]([C@H](C)[C@@H](OC(=O)CNC(=O)[C@@H]3CCCN3C(=O)CN)[C@@H](Cl)c3ccccc3)OC(=O)[C@H](CC(C)C)OC(=O)C(C)(C)CNC2=O)cc1Cl [compound 12, Gly-Pro-Cry-55gly]
cleavage and metabolism upon incubation with cathepsin B [6]: not further metabolized to cryptophycin-55 glycinate
IC50 [2]: 0.15 ± 0.03 nM
IC50 [3]: 0.039 ± 0.01 nM
